Experiments:
PIK3CB (Human) = PIK3CB (Human) (UniProt P42338); assay: Inhibition of PIK3CB Kinase Activity
PIK3CA (human) = PIK3CA (human) (UniProt P42336); assay: Inhibition of PIK3CA Kinase Activity
PIK3CD (Human) = PIK3CD (Human) (UniProt O00329); assay: Inhibition of PIK3CD Kinase Activity
PIK3CG (human) = PIK3CG (human) (UniProt P48736); assay: Inhibition of PIK3CG Kinase Activity
Chain of PIK3CG (human) (P48736 whole entry, looked up): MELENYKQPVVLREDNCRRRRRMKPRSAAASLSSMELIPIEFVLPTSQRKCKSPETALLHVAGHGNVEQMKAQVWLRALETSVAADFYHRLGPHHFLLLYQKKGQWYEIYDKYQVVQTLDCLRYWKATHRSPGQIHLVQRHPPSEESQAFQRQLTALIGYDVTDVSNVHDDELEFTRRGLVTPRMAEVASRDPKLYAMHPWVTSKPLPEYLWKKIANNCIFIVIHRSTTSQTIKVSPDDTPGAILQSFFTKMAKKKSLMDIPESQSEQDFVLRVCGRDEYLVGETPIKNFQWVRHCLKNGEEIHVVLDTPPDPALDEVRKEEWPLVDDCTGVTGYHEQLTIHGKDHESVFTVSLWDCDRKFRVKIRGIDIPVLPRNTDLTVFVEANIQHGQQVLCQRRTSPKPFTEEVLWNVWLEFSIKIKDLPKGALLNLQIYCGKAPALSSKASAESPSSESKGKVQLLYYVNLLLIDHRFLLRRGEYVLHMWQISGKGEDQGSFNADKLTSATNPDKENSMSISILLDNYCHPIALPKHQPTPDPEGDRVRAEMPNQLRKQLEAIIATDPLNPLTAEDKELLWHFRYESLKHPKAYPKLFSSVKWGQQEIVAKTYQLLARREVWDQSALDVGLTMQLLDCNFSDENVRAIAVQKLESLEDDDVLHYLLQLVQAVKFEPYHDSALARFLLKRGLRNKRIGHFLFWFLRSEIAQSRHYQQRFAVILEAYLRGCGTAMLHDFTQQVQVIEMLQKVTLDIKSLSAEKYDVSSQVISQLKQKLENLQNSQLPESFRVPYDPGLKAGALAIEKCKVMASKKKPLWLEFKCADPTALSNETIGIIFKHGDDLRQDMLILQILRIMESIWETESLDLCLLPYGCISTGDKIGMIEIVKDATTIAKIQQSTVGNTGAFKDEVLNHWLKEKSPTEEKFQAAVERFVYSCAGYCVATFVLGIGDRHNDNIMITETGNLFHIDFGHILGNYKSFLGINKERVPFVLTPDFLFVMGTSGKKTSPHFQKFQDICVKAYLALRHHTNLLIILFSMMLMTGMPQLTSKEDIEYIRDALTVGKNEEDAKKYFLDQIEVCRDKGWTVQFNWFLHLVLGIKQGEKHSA

Chain of PIK3CB (Human) (P42338 whole entry, looked up): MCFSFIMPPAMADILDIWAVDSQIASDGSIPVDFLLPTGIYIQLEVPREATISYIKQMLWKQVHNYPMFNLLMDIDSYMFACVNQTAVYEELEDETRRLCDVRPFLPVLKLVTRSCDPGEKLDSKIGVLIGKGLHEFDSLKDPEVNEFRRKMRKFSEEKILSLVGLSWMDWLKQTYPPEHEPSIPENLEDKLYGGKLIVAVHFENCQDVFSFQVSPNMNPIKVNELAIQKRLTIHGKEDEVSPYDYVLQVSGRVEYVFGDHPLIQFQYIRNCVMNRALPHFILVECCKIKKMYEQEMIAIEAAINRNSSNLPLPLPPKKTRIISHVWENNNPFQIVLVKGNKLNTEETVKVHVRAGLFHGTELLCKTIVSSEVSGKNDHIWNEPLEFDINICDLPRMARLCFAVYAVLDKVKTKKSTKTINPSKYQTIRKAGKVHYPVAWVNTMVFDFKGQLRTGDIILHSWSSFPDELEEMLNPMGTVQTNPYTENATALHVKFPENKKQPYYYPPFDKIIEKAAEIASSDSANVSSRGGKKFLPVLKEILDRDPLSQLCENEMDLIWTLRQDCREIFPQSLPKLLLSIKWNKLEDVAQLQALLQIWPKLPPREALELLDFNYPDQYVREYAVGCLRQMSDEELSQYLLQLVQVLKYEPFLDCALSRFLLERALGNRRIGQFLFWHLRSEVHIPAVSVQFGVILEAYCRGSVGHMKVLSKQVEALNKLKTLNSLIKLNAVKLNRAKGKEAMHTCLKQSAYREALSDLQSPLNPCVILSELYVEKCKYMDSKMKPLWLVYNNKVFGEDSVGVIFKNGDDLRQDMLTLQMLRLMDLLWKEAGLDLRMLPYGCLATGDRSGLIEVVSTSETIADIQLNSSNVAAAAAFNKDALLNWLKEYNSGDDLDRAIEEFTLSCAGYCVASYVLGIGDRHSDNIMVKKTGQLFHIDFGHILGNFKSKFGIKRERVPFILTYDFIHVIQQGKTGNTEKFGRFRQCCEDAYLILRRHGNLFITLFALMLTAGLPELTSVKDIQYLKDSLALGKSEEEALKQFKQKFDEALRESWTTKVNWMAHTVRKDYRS
Chain of PIK3CD (Human) (O00329 whole entry, looked up): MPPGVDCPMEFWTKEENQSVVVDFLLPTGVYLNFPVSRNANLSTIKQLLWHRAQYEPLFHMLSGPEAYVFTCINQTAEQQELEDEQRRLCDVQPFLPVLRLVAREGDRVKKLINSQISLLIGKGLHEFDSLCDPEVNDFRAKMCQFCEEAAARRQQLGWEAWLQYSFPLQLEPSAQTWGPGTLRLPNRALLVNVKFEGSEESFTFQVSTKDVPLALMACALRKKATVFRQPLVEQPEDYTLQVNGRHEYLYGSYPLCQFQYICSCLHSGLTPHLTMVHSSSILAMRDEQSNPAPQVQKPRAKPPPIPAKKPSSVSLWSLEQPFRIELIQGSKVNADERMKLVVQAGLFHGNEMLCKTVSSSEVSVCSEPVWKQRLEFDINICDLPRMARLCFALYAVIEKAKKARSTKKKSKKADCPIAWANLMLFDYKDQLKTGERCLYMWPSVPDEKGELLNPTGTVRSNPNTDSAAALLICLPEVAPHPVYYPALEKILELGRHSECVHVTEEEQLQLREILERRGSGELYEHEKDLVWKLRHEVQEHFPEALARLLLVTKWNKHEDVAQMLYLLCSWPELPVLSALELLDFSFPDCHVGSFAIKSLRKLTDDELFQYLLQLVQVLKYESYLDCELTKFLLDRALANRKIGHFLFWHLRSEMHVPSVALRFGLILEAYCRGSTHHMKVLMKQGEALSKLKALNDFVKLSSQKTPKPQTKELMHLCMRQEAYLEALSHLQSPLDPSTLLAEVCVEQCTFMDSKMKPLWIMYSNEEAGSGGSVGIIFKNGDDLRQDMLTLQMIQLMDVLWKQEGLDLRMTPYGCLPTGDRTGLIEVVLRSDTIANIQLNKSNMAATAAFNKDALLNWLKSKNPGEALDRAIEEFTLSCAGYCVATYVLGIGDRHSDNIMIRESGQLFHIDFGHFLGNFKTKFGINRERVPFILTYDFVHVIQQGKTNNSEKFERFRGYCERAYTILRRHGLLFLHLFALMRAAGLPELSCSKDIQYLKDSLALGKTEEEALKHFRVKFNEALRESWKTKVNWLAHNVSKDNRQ
Chain of PIK3CA (human) (P42336 whole entry, looked up): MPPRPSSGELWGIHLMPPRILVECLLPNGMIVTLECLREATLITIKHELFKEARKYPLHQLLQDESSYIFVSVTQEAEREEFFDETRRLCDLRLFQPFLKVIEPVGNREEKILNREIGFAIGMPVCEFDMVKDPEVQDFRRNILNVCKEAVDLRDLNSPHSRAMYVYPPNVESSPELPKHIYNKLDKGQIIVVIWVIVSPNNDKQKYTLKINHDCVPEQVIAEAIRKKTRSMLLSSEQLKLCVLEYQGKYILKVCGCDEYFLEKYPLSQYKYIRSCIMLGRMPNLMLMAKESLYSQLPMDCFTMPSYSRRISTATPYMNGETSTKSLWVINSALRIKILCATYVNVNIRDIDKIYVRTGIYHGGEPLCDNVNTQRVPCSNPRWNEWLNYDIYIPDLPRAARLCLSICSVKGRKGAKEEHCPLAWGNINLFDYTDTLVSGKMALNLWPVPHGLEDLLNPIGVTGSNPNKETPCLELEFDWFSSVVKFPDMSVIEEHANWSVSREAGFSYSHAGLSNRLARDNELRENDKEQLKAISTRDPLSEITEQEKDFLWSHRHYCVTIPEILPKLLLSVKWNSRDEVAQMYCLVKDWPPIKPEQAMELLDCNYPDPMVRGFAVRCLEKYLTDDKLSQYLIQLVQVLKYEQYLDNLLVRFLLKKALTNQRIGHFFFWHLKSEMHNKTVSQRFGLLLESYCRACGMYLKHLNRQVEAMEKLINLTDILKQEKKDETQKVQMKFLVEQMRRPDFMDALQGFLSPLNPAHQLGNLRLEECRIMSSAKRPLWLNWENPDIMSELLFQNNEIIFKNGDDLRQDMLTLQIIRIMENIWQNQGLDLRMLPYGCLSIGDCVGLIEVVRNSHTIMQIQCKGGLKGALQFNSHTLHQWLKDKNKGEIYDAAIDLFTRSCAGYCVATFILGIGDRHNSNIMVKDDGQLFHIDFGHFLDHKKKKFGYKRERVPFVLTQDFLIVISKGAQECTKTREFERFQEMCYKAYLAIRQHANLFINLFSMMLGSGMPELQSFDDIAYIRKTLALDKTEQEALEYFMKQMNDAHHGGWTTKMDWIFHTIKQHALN

IC50 (PIK3CB (Human)) [µM] | IC50 (PIK3CA (human)) [µM] | IC50 (PIK3CD (Human)) [µM] | IC50 (PIK3CG (human)) [µM] | SMILES
> 10 | > 10 | 0.1 to 1 | 0.1 to 1 | C[C@H](Nc1ncnc2[nH]cnc12)c1cc2cccc(N3CCOCC3)c2c(=O)n1-c1ccccc1
> 10 |  | < 0.1 | 0.1 to 1 | C[C@H](Nc1ncnc2[nH]cnc12)c1cc2cccc(-c3cn[nH]c3)c2c(=O)n1-c1ccccc1
 | 0.1 to 1 | < 0.1 | < 0.1 | Cc1ccc(-c2cccc3cc([C@H](C)Nc4nc(N)nc5[nH]cnc45)n(-c4ccccc4)c(=O)c23)cn1
 | 0.1 to 1 | < 0.1 | < 0.1 | C[C@H](Nc1ncnc2[nH]cc(C#N)c12)c1cc2cccc(-c3cnn(C)c3)c2c(=O)n1-c1ccccc1
0.1 to 1 | 0.1 to 1 | < 0.1 | < 0.1 | C[C@H](Nc1ncnc2[nH]cnc12)c1cc2cccc(-c3cn[nH]c3)c2c(=O)n1C1CC1
 |  | < 0.1 | 0.1 to 1 | C[C@H](Nc1ncnc2[nH]cnc12)c1cc2cccc(-c3cnn(C)c3)c2c(=O)n1C1CC1
> 10 | > 10 | 0.1 to 1 |  | Cc1ccc(-c2cccc3cc([C@H](C)Nc4ncnc(N)n4)n(-c4ccccc4)c(=O)c23)cn1
> 10 | > 10 | < 0.1 | < 0.1 | C[C@H](Nc1nc(N)ncc1C(F)(F)F)c1cc2cccc(-c3cnn(C)c3)c2c(=O)n1-c1ccccc1
 |  | < 0.1 | < 0.1 | CCc1cccc2cc([C@H](C)Nc3ncnc4[nH]cnc34)n(-c3ccccc3)c(=O)c12
 |  | < 0.1 | < 0.1 | C[C@H](Nc1ncnc2[nH]cc(C(N)=O)c12)c1cc2cccc(-c3cnn(C)c3)c2c(=O)n1-c1ccccc1
 | 0.1 to 1 | < 0.1 | < 0.1 | C[C@H](Nc1nc(N)nc2[nH]cnc12)c1cc2cccc(-c3cccnc3)c2c(=O)n1-c1ccccc1
> 10 |  | < 0.1 |  | COc1ncc(-c2cccc3cc([C@H](C)Nc4ncnc5[nH]cnc45)n(-c4ccccc4)c(=O)c23)cn1
> 10 | > 10 |  | > 10 | C[C@H](Nc1ncnn2cncc12)c1cc2cccc(-c3cnn(C)c3)c2c(=O)n1-c1ccccc1
 | 0.1 to 1 | < 0.1 | < 0.1 | Cc1cc(-c2cccc3cc([C@H](C)Nc4ncnc5[nH]cnc45)n(-c4ccccc4)c(=O)c23)ccn1
> 10 | > 10 |  |  | C[C@H](Nc1ncnc2[nH]cnc12)c1cc2cccc(N(C)C)c2c(=O)n1-c1ccccc1
0.1 to 1 |  | < 0.1 | < 0.1 | C[C@H](Nc1ncnc2[nH]cnc12)c1cc2cccc(-c3cccnc3)c2c(=O)n1C1CC1
 |  | < 0.1 | < 0.1 | C[C@H](Nc1ncnc2[nH]cnc12)c1cc2cccc(-c3cccnc3)c2c(=O)n1-c1ccccc1
> 10 |  | < 0.1 | < 0.1 | C[C@H](Nc1ncnc2[nH]cnc12)c1cc2cccc(-c3cnn(C)c3)c2c(=O)n1-c1cccc(F)c1
> 10 | > 10 | < 0.1 | < 0.1 | C[C@H](Nc1ncnc2[nH]cnc12)c1cc2cccc(-c3cnn(C)c3)c2c(=O)n1-c1ccccc1
 | > 10 | < 0.1 | < 0.1 | C[C@H](Nc1ncnc2[nH]cnc12)c1cc2cccc(C#N)c2c(=O)n1-c1ccccc1
> 10 | > 10 | < 0.1 |  | C[C@H](Nc1ncnc(N)n1)c1cc2cccc(-c3cnn(C)c3)c2c(=O)n1-c1ccccc1
> 10 |  | < 0.1 | 0.1 to 1 | C[C@H](Nc1ncnn2ccnc12)c1cc2cccc(-c3cnn(C)c3)c2c(=O)n1-c1ccccc1

IC50 (PIK3CB (Human)) [µM] | IC50 (PIK3CA (human)) [µM] | IC50 (PIK3CD (Human)) [µM] | IC50 (PIK3CG (human)) [µM] | SMILES
> 10 | > 10 | < 0.1 | 0.1 to 1 | C[C@H](Nc1nc(N)ncc1Cl)c1cc2cccc(-c3cnn(C)c3)c2c(=O)n1-c1ccccc1
 |  | < 0.1 | 0.1 to 1 | C[C@H](Nc1ncnc2[nH]cc(F)c12)c1cc2cccc(-c3cnn(C)c3)c2c(=O)n1C1CC1
> 10 | > 10 | < 0.1 |  | Cc1cn(-c2cccc3cc([C@H](C)Nc4ncnc5[nH]cnc45)n(-c4ccccc4)c(=O)c23)cn1
> 10 | > 10 | 0.1 to 1 |  | Cc1cnn(-c2cccc3cc([C@H](C)Nc4ncnc5[nH]cnc45)n(-c4ccccc4)c(=O)c23)c1
> 10 | > 10 | 0.1 to 1 |  | C[C@H](Nc1ncnc2[nH]cnc12)c1cc2cccc(NC3CCOCC3)c2c(=O)n1-c1ccccc1
> 10 | > 10 | 0.1 to 1 |  | C[C@H](Nc1ncnc2[nH]cnc12)c1cc2cccc(-n3cccn3)c2c(=O)n1-c1ccccc1
 |  | < 0.1 | < 0.1 | C[C@H](Nc1ncnc2[nH]cnc12)c1cc2cccc(-c3ccncc3)c2c(=O)n1-c1ccccc1
> 10 | > 10 | < 0.1 | < 0.1 | C[C@H](Nc1nc(N)ncc1I)c1cc2cccc(-c3cnn(C)c3)c2c(=O)n1-c1ccccc1
 |  | < 0.1 | < 0.1 | C=Cc1cccc2cc([C@H](C)Nc3ncnc4[nH]cnc34)n(-c3ccccc3)c(=O)c12
> 10 | > 10 | < 0.1 | < 0.1 | C[C@H](Nc1nc(N)ncc1C(F)(F)F)c1cc2cccc(-c3cnn(C)c3)c2c(=O)n1C1CC1
> 10 | > 10 | < 0.1 | < 0.1 | C[C@H](Nc1ncnc2[nH]cnc12)c1cc2cccc(-c3cc[nH]n3)c2c(=O)n1-c1ccccc1
 |  | < 0.1 | < 0.1 | C[C@H](Nc1ncnc2[nH]cnc12)c1cc2cccc(-c3cccc(F)c3)c2c(=O)n1-c1ccccc1
< 0.1 |  | < 0.1 | < 0.1 | C[C@H](Nc1nc(N)ncc1C#N)c1cc2cccc(-c3cnn(C)c3)c2c(=O)n1C1CC1
> 10 | > 10 | < 0.1 | 0.1 to 1 | C[C@H](Nc1ncnc2[nH]cnc12)c1cc2cccc(-c3cccnc3)c2c(=O)[nH]1
> 10 | > 10 |  |  | C[C@H](Nc1ncnc2[nH]cnc12)c1cc2cccc(N3CCCC3)c2c(=O)n1-c1ccccc1
> 10 | > 10 | < 0.1 | < 0.1 | C[C@H](Nc1nc(N)ncc1C#N)c1cc2cccc(-c3cnn(C)c3)c2c(=O)n1-c1ccccc1
> 10 | > 10 | 0.1 to 1 | > 10 | C[C@H](Nc1ncnc2[nH]cnc12)c1cc2cccc(N3CCN(C)CC3)c2c(=O)n1-c1ccccc1
> 10 |  | < 0.1 | < 0.1 | C[C@H](Nc1ncnc(N)c1C#N)c1cc2cccc(-c3cnn(C)c3)c2c(=O)n1-c1ccccc1
> 10 | > 10 |  | > 10 | C[C@H](Nc1ncnc2[nH]cnc12)c1cc2cccc(-c3cnn(C)c3)c2c(=O)[nH]1
 | 0.1 to 1 | < 0.1 | < 0.1 | C[C@H](Nc1nc(N)nc2[nH]cnc12)c1cc2cccc(-c3cnn(C)c3)c2c(=O)n1-c1ccccc1
> 10 |  | < 0.1 | < 0.1 | Cc1ccc(-c2cccc3cc([C@H](C)Nc4ncnc5[nH]cnc45)n(-c4ccccc4)c(=O)c23)cn1

Reference: the Kinase Knowledgebase extract (Sharma et al. 2016)
